Laboratory results: patent US6407130B1, “Carboxamide-substituted benzimidazoles having tryptase-inhibiting activity” (Boehringer Ingelheim Pharma KG, priority 1999, dated 2002)
Structures can show the parent of a compound that is named as a salt.

Target: T1, rh beta tryptase (Homo sapiens, UniProt Q15661)
T1 construct: purchased Promega
Test: tryptase inhibition test (cleavage of N-p-tosyl-Gly-Pro-Lys-para-nitroaniline, p-nitroaniline measured at 405 nm)
Type: biochemical
Conditions: Tris HCl buffer pH 7.4 with calcium and heparin; substrate 0.6 mM; 5 minutes' pre-incubation, 5 minutes incubation at 37° C.
Experimental: The compounds according to the invention are characterised by their tryptase-inhibiting activity. This ability to inhibit tryptase was investigated using the test described as follows. The measurement is carried out in Tris HCl buffer (100 mM), which additionally contains calcium (5 mM) and heparin ([…]), at pH 7.4. The standard used is rh beta tryptase which may be obtained commercially from Promega, for example. The substrate used is N-p-tosyl-Gly-Pro-Lys-para-nitroaniline in a concentration of 0.6 mM. The substrate is digested with tryptase to form p-nitroaniline which can be measured at 405 nm. Usually, an incubation period of 5 minutes and an incubation temperature of 37° C. are chosen. The enzyme activity used is 0.91 U/ml. The measurements are carried out in an Autoanalyser (Cobas Bio) made by Hofmann LaRoche. The potential inhibitory substances are used in concentrations of 10 μM in the screening, the inhibition of the tryptase being given in percent. The IC50 is determined at over 70% inhibition (concentration at which 50% of the enzyme activity is inhibited). After 5 minutes' pre-incubation of the potential inhibitory substances, the substrate is added to start the reaction, the formation of p-nitroaniline being taken as a measurement of the enzyme activity after 5 minutes, after testing the linearity.

T1 sequence (Q15661 31-275): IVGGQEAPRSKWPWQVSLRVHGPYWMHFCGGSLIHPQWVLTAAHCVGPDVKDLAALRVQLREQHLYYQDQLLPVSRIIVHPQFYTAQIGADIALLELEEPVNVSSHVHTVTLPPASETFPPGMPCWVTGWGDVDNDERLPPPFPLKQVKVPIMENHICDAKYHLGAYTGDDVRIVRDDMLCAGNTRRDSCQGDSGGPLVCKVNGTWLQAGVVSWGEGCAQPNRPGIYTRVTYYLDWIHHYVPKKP

IC50	Compound
90.6 nM	Cn1c(CCc2ccc(C(=N)N)cc2)nc2cc(N(Cc3c4ccccc4cc4ccccc34)C(=O)CCC3CCN(Cc4ccccc4)CC3)ccc21 [Example 56, N-{2-[2-(4-Amidinophenyl)-ethyl]-1-methyl-benzimidazol-5-yl}-N-(anthracen-9-ylmethyl)-[3-(1-benzyl-piperidin-4-yl)-propionamide]-dihydro-chloride]
58.4 nM	Cn1c(CCc2ccc(C(=N)N)cc2)nc2cc(N(Cc3cccc4ccccc34)C(=O)CN3CCC[C@H]3C(N)=O)ccc21 [Example 72]
39 nM	Cn1c(CCc2ccc(C(=N)N)cc2)nc2cc(N(Cc3cccc4ccccc34)C(=O)CNCc3ccc(F)cc3)ccc21 [Example 61, N-{2-[2-(4-Amidinophenyl)-ethyl]-1-methyl-benzimidazol-5-yl}-N-( - naphthylmethyl)-[2-(4-fluorobenzylamino)-acetamide]-dihydrochloride]
3.9 nM	Cn1c(CCc2ccc(C(=N)N)cc2)nc2cc(N(Cc3cccc4ccccc34)C(=O)CN3CCC(Cc4ccccc4)CC3)ccc21 [Example 70, N-{2-[2-(4-Amidinophenyl)-ethyl]-1-methyl-benzimidazol-5-yl}-N-( - naphthylmethyl)-[2-(4-benzyl-4-piperidin-1-yl)-acetamide]-dihydro-chloride]
110 nM	Cn1c(CCc2ccc(C(=N)N)cc2)nc2cc(N(Cc3cccc4ccccc34)C(=O)CO)ccc21 [Example 77, N-{2-[2-(4-Amidinophenyl)-ethyl]-1-methyl-benzimidazol-5-yl}-N-(- naphthylmethyl)-[3-hydroxy-acetamide]-hydrochloride]
61 nM	CC(C)CN(C(=O)CCc1ccc(C(=N)N)cc1)c1ccc2c(c1)nc(CCc1ccc(C(=N)N)cc1)n2C [Example 5, N-{2-[2-(4-Amidinophenyl)-ethyl]-1-methyl-benzimidazol-5-yl}-N-isobutyl-[3-(4-amidinophenyl)-propionamide]-dihydrochloride]
18 nM	Cn1c(CCc2ccc(C(=N)N)cc2)nc2cc(N(Cc3cccc4ccccc34)C(=O)CN3CCC(O)(Cc4ccccc4)CC3)ccc21 [Example 69, N-{2-[2-(4-Amidinophenyl)-ethyl]-1-methyl-benzimidazol-5-yl}-N-( - naphthylmethyl)-[2-(4-benzyl-4-hydroxypiperidin-1-yl)-acetamide]-dihydrochloride]
38 nM	Cn1c(CCc2ccc(C(=N)N)cc2)nc2cc(N(Cc3cccc4ccccc34)C(=O)CNCc3ccncc3)ccc21 [Example 48, N-{2-[2-(4-Amidinophenyl)-ethyl]-1-methyl-benzimidazol-5-yl}-N-( - naphthylmethyl)-[2-(pyridin-4-ylmethylamino)-acctamide]-dihydrochloride]
108 nM	Cn1c(CCc2ccc(C(=N)N)cc2)nc2cc(N(Cc3ccccc3)C(=O)CCC3CCNCC3)ccc21 [Example 7]
43 nM	Cn1c(CCc2ccc(C(=N)N)cc2)nc2cc(N(Cc3ccccc3)C(=O)CCCCNC(=N)N)ccc21 [Example 34, N-{2-[2-(4-Amidinophenyl)-ethyl]-1-methyl-benzimidazol-5-yl}-N-benzyl-[5-guanidino-pentanoic acid amide]-dihydrochloride]
27 nM	CCOC(=O)c1ccc(CNCC(=O)N(Cc2cccc3ccccc23)c2ccc3c(c2)nc(CCc2ccc(C(=N)N)cc2)n3C)cc1 [Example 65, N-{2-[2-(4-Amidinophenyl)-ethyl]-1-methyl-benzimidazol-5-yl}-N-( - naphthylmethyl)-[2-(4-ethylcarboxylatbenzylamino)-acetamide]-dihydrochloride]
27 nM	Cn1c(CCc2ccc(C(=N)N)cc2)nc2cc(N(Cc3cccc4ccccc34)C(=O)CNCc3cccc(C(=N)N)c3)ccc21 [Example 46, N-{2-[2-(4-Amidinophenyl)-ethyl]-1-methyl-benzimidazol-5-yl}-N-( - naphthylmethyl)-[2-(3-amidinobenzylamino)-acetamide]-trihydrochloride]
16 nM	Cn1c(CCc2ccc(C(=N)N)cc2)nc2cc(N(CCC(c3ccccc3)c3ccccc3)C(=O)CCc3ccc(C(=N)N)cc3)ccc21 [Example 10, N-{2-[2-(4-Amidinophenyl)-ethyl]-1-methyl-benzimidazol-5-yl}-N-(3,3-diphenylpropyl)-[3-(4-amidinophenyl)-propionamide]-dihydrochloride]
12 nM	Cn1c(CCc2ccc(C(=N)N)cc2)nc2cc(N(Cc3cccc4ccccc34)C(=O)CNCc3ccc(-c4ccccc4)cc3)ccc21 [Example 45, N-{2-[2-(4-Amidinophenyl)-ethyl]-1-methyl-benzimidazol-5-yl}-N-( - naphthylmethyl)-[2-(4-phenylbenzylamino)-acetamide]-dihydrochloride]
66 nM	CN(C)CCOCC(=O)N(Cc1cccc2ccccc12)c1ccc2c(c1)nc(CCc1ccc(C(=N)N)cc1)n2C [Example 59, N-{2-[2-(4-Amidinophenyl)-ethyl]-1-methyl-benzimidazol-5-yl}-N-(α-naphthylmethyl)-[2-(2-dimethylaminoethoxy)-acetamide]-dihydrochloride]
7 nM	Cn1c(CCc2ccc(C(=N)N)cc2)nc2cc(N(Cc3cccc4ccccc34)C(=O)CNCc3ccc(N)cc3)ccc21 [Example 23, N-{2-[2-(4-Amidinophenyl)-ethyl]-1-methyl-benzimidazol-5-yl}-N-( - naphthylmethyl)-[4-aminobenzylamino-acetamide]-trihydrochloride]
21.3 nM	CN(C)CCCNCC(=O)N(Cc1cccc2ccccc12)c1ccc2c(c1)nc(CCc1ccc(C(=N)N)cc1)n2C [Example 78, N-{2-[2-(4-Amidinophenyl)-ethyl]-1-methyl-benzimidazol-5-yl}-N-(α-naphthylmethyl)-[2-(N-(3-dimethylaminopropyl)-amino)-acetamide]-trihydrochloride]
16 nM	Cn1c(CCc2ccc(C(=N)N)cc2)nc2cc(N(Cc3cccc4ccccc34)C(=O)CCc3cccc(C(=N)N)c3)ccc21 [Example 19, N-{2-[2-(4-Amidinophenyl)-ethyl]-1-methyl-benzimidazol-5-yl}-N-- naphthylmethyl-[3-(3-amidinophenyl)-propionamide]-dihydrochloride]
28 nM	CN(CC(=O)N(Cc1cccc2ccccc12)c1ccc2c(c1)nc(CCc1ccc(C(=N)N)cc1)n2C)Cc1ccccc1 [Example 63, N-{2-[2-(4-Amidinophenyl)-ethyl]-1-methyl-benzimidazol-5-yl}-N-( - naphthylmethyl)-[2-(N-benzyl-N-methylamino)-acetamide]-dihydrochloride]
14 nM	Cn1c(CCc2ccc(C(=N)N)cc2)nc2cc(N(Cc3cccc4ccccc34)C(=O)CCC3CCN(Cc4ccccc4)CC3)ccc21 [Example 35, N-{2-[2-(4-Amidinophenyl)-ethyl]-1-methyl-benzimidazol-5-yl}-N-( - naphthylmethyl)-[3-(1-benzyl-piperidin-4-yl)-propionamide]-dihydro-chloride]
10 nM	Cn1c(CCc2ccc(C(=N)N)cc2)nc2cc(N(Cc3cccc4ccccc34)C(=O)CNCc3ccc(C(=N)N)cc3)ccc21 [Example 22, N-{2-[2-(4-Amidinophenyl)-ethyl]-1-methyl-benzimidazol-5-yl}-N-( - naphthylmethyl)-[4-amidinobenzylamino-acetamide]-trihydrochloride]
47 nM	Cn1c(CCc2ccc(C(=N)N)cc2)nc2cc(N(Cc3cccc4ccccc34)C(=O)CCC3CCNCC3)ccc21 [Example 38, N-{2-[2-(4-Amidinophenyl)-ethyl]-1-methyl-benzimidazol-5-yl}-N-( - naphthylmethyl)-[3-(piperidin-4-yl)-propionamide]-dihydrochloride]
13 nM	Cn1c(CCc2ccc(C(=N)N)cc2)nc2cc(N(Cc3cccc4ccccc34)C(=O)CN3CCN(c4ccccn4)CC3)ccc21 [Example 40, N-{2-[2-(4-Amidinophenyl)-ethyl]-1-methyl-benzimidazol-5-yl}-N-( - naphthylmethyl)-[2-(1-pyridin-2-yl-piperazin-4-yl)-acetamide]-dihydro-chloride]

Compound	IC50
N-{2-[2-(4-Amidinophenyl)-ethyl]-1- methyl-benzimidazol-5-yl}-N-( - naphthylmethylamino)-[2-(4- trifluoromethylbenzylamino)- acetamide]-dihydrochloride [Example 44]	31 nM
N-{2-[2-(4-Amidinophenyl)-ethyl]-1- methyl-benzimidazol-5-yl}-N-( - naphthyl)-[4- dimethylaminobenzylamino- acetamide]-dihydrochloride [Example 21]	11 nM
Cn1c(CCc2ccc(C(=N)N)cc2)nc2cc(N(Cc3ccc4ccccc4c3)C(=O)CCc3ccc(C(=N)N)cc3)ccc21 [Example 11, N-{2-[2-(4-Amidinophenyl)-ethyl]-1-methyl-benzimidazol-5-yl}-N-β-naphthylmethyl-[3-(4-amidinophenyl)-propionamide]-dihydrochloride]	15 nM
N-{2-[2-(4-Amidinophenyl)-ethyl]-1- methyl-benzimidazol-5-yl}-N-( - naphthylmethyl)-[2-(1-pyridin-2-yl- piperazin-4-yl)-acetamide]-trihydro- chloride [Example 79]	20.1 nM
